This assay concerns HBsAg secretion in HepG2.2.15 cells. In words: HBsAg assay (chemiluminescence immunoassay of secreted HBsAg in culture supernatant). Format: cell-based, HBV. On the procedure: HepG2.2.15 cells (Acs et al. Proc Natl Acad Sci USA, 84, (1987), 4641-4), a constitutively HBV-expressing cell line were cultured in DMEM+Glutamax-I medium (Invitrogen, Carlsbad, Calif., USA), supplemented with 10% fetal bovine serum (Invitrogen) and G418 (Invitrogen) at a final concentration of 200 mg/L and maintained in 5% CO2 at 37° C.
HepG2.2.15 cells were seeded in duplicate into white, 96-well plates at 1.5×10^4 cells/well. The cells were treated with a three-fold serial dilution series of the compounds in DMSO. The final DMSO concentration in all wells was 1% and DMSO was used as no drug control.
The HBsAg chemiluminescence immunoassay (CLIA) kit (Autobio Diagnostics Co., Zhengzhou, China, Catalog number: CL0310-2) was used to measure the levels of secreted HBV antigens semi-quantitatively. For the detection 50 μL/well culture supernatant was used and HBsAg was quantified using HBsAg chemiluminescence immunoassay (CLIA) kit (Autobio Diagnostics Co., Zhengzhou, China, Catalog number: CL0310-2), 50 μL of the supernatant was transferred to the CLIA assay plate and 50 μL of enzyme conjugate reagent was added into each well. The plates were sealed and gently agitated for 1 hour at room temperature. The supernatant-enzyme-mixture was discarded and wells were washed 6 times with 300 μL of PBS. The residual liquid was removed by plating the CLIA plate […] on absorbent tissue paper. 25 μL of substrates A and B were added to each well. Luminance was measured using a luminometer (Mithras LB 940 Multimode Microplate Reader) after 10 minutes incubation. Dose-response curves were generated and the IC50 value was extrapolated by using the E-WorkBook Suite (ID Business Solutions Ltd., Guildford, UK). The IC50 was defined as the compound concentration (or conditioned media log dilution) at which HBsAg secretion was reduced by 50% compared to the no drug control.
The compounds according to formula I were tested for their capacity to inhibit HBsAg as described herein.

[1] abbreviates: Hepatitis B virus, HepG2.2.15, HepG2.2.15 cells, concentration at which HBsAg secretion was reduced by 50% compared to the no drug control, read-out: IC50 (HBsAg assay).
Where [2] appears, read: HepG2.2.15 cells, concentration at which HBsAg secretion was reduced by 50% compared to the no drug control, read-out: IC50 (HBsAg assay).

From patent US9845322B2 (Hoffmann-La Roche Inc., priority 2016, dated 2017) come the findings set out here.

Where two headings read alike, the source gives them in different places.

On to `CC1c2cnc(-c3ncccn3)nc2CCN1c1cc(OCCCCCC(=O)O)cc(F)n1` (single isomer, unassigned; (-)) [Example 164, (−)-6-[[2-fluoro-6-[5-methyl-2-pyrimidin-2-yl-7,8-dihydro-5H-pyrido[4,3-d]pyrimidin-6-yl]-4-pyridyl]oxy]hexanoic acid], for which the IC50 under setting [1] turned out to be 22 nM.

With `CC1c2cnc(-c3ncccn3)nc2CCN1c1cc(OCCCN2CCOCC2=O)cc(F)n1` (single isomer, unassigned; (-)) [Example 181, (−)-4-[3-[[2-fluoro-6-[5-methyl-2-pyrimidin-2-yl-7,8-dihydro-5H-pyrido[4,3-d]pyrimidin-6-yl]-4-pyridyl]oxy]propyl]morpholin-3-one], the IC50 under setting [1] was 12 nM.

For the molecule `CC1c2cnc(-c3ncccn3)nc2CCN1c1cc(OCCCC(=O)O)cc(F)n1` (single isomer, unassigned; (-)) [Example 184, (−)-4-[[2-fluoro-6-[5-methyl-2-pyrimidin-2-yl-7,8-dihydro-5H-pyrido[4,3-d]pyrimidin-6-yl]-4-pyridyl]oxy]butanoic acid], the IC50 under setting [1] came to 182 nM.

In the case of `CC1c2cnc(-c3ncccn3)nc2CCN1c1cc(OCCCC(N)=O)cc(F)n1` (single isomer, unassigned; (-)) [Example 185, (−)-4-[[2-fluoro-6-[5-methyl-2-pyrimidin-2-yl-7,8-dihydro-5H-pyrido[4,3-d]pyrimidin-6-yl]-4-pyridyl]oxy]butanamide], under setting [1], the IC50 is 14 nM.

`CC1c2cnc(-c3ncccn3)nc2CCN1c1cc(F)cc(N(C)C)n1` (single isomer, unassigned; (-)) [Example 205, (−)-4-fluoro-N,N-dimethyl-6-[5-methyl-2-pyrimidin-2-yl-7,8-dihydro-5H-pyrido[4,3-d]pyrimidin-6-yl]pyridin-2-amine]: the IC50 under setting [2] is 5 nM.

In the case of `CC1c2cnc(-c3ncccn3)nc2CCN1c1cc(F)cc(N2CCNC(=O)C2)n1` (single isomer, unassigned; (-)) [Example 225, (−)-4-[4-fluoro-6-(5-methyl-2-pyrimidin-2-yl-7,8-dihydro-5H-pyrido[4,3-d]pyrimidin-6-yl)-2-pyridyl]piperazin-2-one], the IC50 under setting [2] is 13 nM.

Turning to `CC1c2cnc(-c3ccccn3)nc2CCN1c1ccc([N+](=O)[O-])cc1` (centres unmarked) [Example 1, 5-methyl-6-(4-nitrophenyl)-2-(2-pyridyl)-7,8-dihydro-5H-pyrido[4,3-d]pyrimidine], under setting [2], the IC50 worked out at 186 nM.

Regarding `CCC1c2cnc(-c3ccccn3)nc2CCN1c1ccc(S(C)(=O)=O)cc1` (centres unmarked) [Example 4, 5-ethyl-6-(4-methylsulfonylphenyl)-2-(2-pyridyl)-7,8-dihydro-5H-pyrido[4,3-d]pyrimidine], the IC50 under setting [1] was 1920 nM.

Consider `COc1cc(N2CCc3nc(-c4ccccn4)ncc3C2C)cc(F)c1F` (centres unmarked) [Example 5, 6-(3,4-difluoro-5-methoxy-phenyl)-5-methyl-2-(2-pyridyl)-7,8-dihydro-5H-pyrido[4,3-d]pyrimidine], for which the concentration for half-maximal inhibition (IC50) under setting [2] was 38 nM.

`COC(=O)C(C(=O)OC)C1c2cnc(-c3ccccn3)nc2CCN1c1ccc(S(C)(=O)=O)cc1` (centres unmarked) [Example 8]: under setting [1], the IC50 is 19600 nM.

As to `CCC1c2cnc(-c3ccccn3)nc2CCN1c1cc(F)c(F)c(OC)c1` (centres unmarked) [Example 9, 6-(3,4-difluoro-5-methoxy-phenyl)-5-ethyl-2-(2-pyridyl)-7,8-dihydro-5H-pyrido[4,3-d]pyrimidine], the IC50 under setting [2] turned out to be 183 nM.

In the case of `CCCC1c2cnc(-c3ccccn3)nc2CCN1c1cc(F)c(F)c(OC)c1` (centres unmarked) [Example 12, 6-(3,4-difluoro-5-methoxy-phenyl)-5-propyl-2-(2-pyridyl)-7,8-dihydro-5H-pyrido[4,3-d]pyrimidine], under setting [2], the IC50 worked out at 7490 nM.

`COc1cc(N2CCc3nc(-c4ncccn4)ncc3C2C)cc(F)c1F` (centres unmarked) [Example 15, 6-(3,4-difluoro-5-methoxy-phenyl)-5-methyl-2-pyrimidin-2-yl-7,8-dihydro-5H-pyrido[4,3-d]pyrimidine]: the IC50 under setting [2] is 15 nM.

In the case of `COc1cc(N2CCc3nc(-c4ccccn4)ncc3C2C2CC2)cc(F)c1F` (centres unmarked) [Example 18], the IC50 under setting [1] turned out to be 363 nM.

Regarding `COCCOc1cc(N2CCc3nc(-c4ccccn4)ncc3C2C)cc(F)c1F` (centres unmarked) [Example 19, 6-[3,4-difluoro-5-(2-methoxyethoxy)phenyl]-5-methyl-2-(2-pyridyl)-7,8-dihydro-5H-pyrido[4,3-d]pyrimidine], under setting [2], the IC50 was found to be 42 nM.

In the case of `COc1cc(N2CCc3nc(-c4ncccn4)ncc3C2C)cc(F)c1C#N` (centres unmarked) [Example 22, 2-fluoro-6-methoxy-4-(5-methyl-2-pyrimidin-2-yl-7,8-dihydro-5H-pyrido[4,3-d]pyrimidin-6-yl)benzonitrile], the IC50 (Hepatitis B virus, HepG2.2.15, read-out: IC50 (HBsAg assay)) came to 27 nM.

For the molecule `CC1c2cnc(-c3ccccn3)nc2CCN1c1ccc(S(C)(=O)=O)cc1` (centres unmarked) [Example 23, 5-methyl-6-(4-methylsulfonylphenyl)-2-(2-pyridyl)-7,8-dihydro-5H-pyrido[4,3-d]pyrimidine], under setting [1], the IC50 turned out to be 1490 nM.

With `CC1c2cnc(-c3ccccn3)nc2CCN1c1cc(F)c(F)c(OCCCCO)c1` (centres unmarked) [Example 24, 4-[2,3-difluoro-5-[5-methyl-2-(2-pyridyl)-7,8-dihydro-5H-pyrido[4,3-d]pyrimidin-6-yl]phenoxy]butan-1-ol], the IC50 under setting [1] came out at 29 nM.

As to `CC1c2cnc(-c3ccccn3)nc2CCN1c1cc(F)c(F)c(OCCCCCO)c1` (centres unmarked) [Example 25, 5-[2,3-difluoro-5-[5-methyl-2-(2-pyridyl)-7,8-dihydro-5H-pyrido[4,3-d]pyrimidin-6-yl]phenoxy]pentan-1-ol], the concentration for half-maximal inhibition (IC50) under setting [1] came to 33 nM.

`CC1c2cnc(-c3ccccn3)nc2CCN1c1cc(F)c(F)c(OCCS(C)(=O)=O)c1` (centres unmarked) [Example 26, 6-[3,4-difluoro-5-(2-methylsulfonylethoxy)phenyl]-5-methyl-2-(2-pyridyl)-7,8-dihydro-5H-pyrido[4,3-d]pyrimidine]: under setting [1], the IC50 stood at 78 nM.

As to `COC(=O)COc1cc(N2CCc3nc(-c4ccccn4)ncc3C2C)cc(F)c1F` (centres unmarked) [Example 27, methyl 2-[2,3-difluoro-5-[5-methyl-2-(2-pyridyl)-7,8-dihydro-5H-pyrido[4,3-d]pyrimidin-6-yl]phenoxy]acetate], the IC50 under setting [1] is 3430 nM.

`CC1c2cnc(-c3ccccn3)nc2CCN1c1cc(F)c(F)c(OCC(=O)O)c1` (centres unmarked) [Example 28, 2-[2,3-difluoro-5-[5-methyl-2-(2-pyridyl)-7,8-dihydro-5H-pyrido[4,3-d]pyrimidin-6-yl]phenoxy]acetic acid]: under setting [1], the IC50 was 3080 nM.

For `CC1c2cnc(-c3ccccn3)nc2CCN1c1cc(F)c(F)c(OCC(N)=O)c1` (centres unmarked) [Example 29, 2-[2,3-difluoro-5-[5-methyl-2-(2-pyridyl)-7,8-dihydro-5H-pyrido[4,3-d]pyrimidin-6-yl]phenoxy]acetamide], the IC50 under setting [1] worked out at 50 nM.

Take `CC1c2cnc(-c3ccccn3)nc2CCN1c1cc(F)c(F)c(OCC(=O)N(C)C)c1` (centres unmarked) [Example 30, 2-[2,3-difluoro-5-[5-methyl-2-(2-pyridyl)-7,8-dihydro-5H-pyrido[4,3-d]pyrimidin-6-yl]phenoxy]-N,N-dimethyl-acetamide]: under setting [1], the IC50 amounted to 96 nM.

Regarding `CC1c2cnc(-c3ccccn3)nc2CCN1c1cc(F)c(F)c(OCC(=O)N2CCCC2)c1` (centres unmarked) [Example 31, 2-[2,3-difluoro-5-[5-methyl-2-(2-pyridyl)-7,8-dihydro-5H-pyrido[4,3-d]pyrimidin-6-yl]phenoxy]-1-pyrrolidin-1-yl-ethanone], the IC50 under setting [1] is 156 nM.

`CC1c2cnc(-c3ccccn3)nc2CCN1c1cc(F)c(F)c(OCCCN2CCOCC2)c1` (centres unmarked) [Example 32, 4-[3-[2,3-difluoro-5-[5-methyl-2-(2-pyridyl)-7,8-dihydro-5H-pyrido[4,3-d]pyrimidin-6-yl]phenoxy]propyl]morpholine]: the IC50 under setting [1] was determined as 74 nM.

Take `CC1c2cnc(-c3ccccn3)nc2CCN1c1cc(F)c(F)c(OCCCS(C)(=O)=O)c1` (centres unmarked) [Example 33, 6-[3,4-difluoro-5-(3-methylsulfonylpropoxy)phenyl]-5-methyl-2-(2-pyridyl)-7,8-dihydro-5H-pyrido[4,3-d]pyrimidine]: the IC50 under setting [1] turned out to be 48 nM.

For the molecule `CC1c2cnc(-c3ccccn3)nc2CCN1c1cc(F)c(F)c(OCCCN)c1` (centres unmarked) [Example 34, 3-[2,3-difluoro-5-[5-methyl-2-(2-pyridyl)-7,8-dihydro-5H-pyrido[4,3-d]pyrimidin-6-yl]phenoxy]propan-1-amine], under setting [1], the IC50 is 1710 nM.

Take `CC1c2cnc(-c3ccccn3)nc2CCN1c1cc(F)c(F)c(OCCCNS(C)(=O)=O)c1` (centres unmarked) [Example 35, N-[3-[2,3-difluoro-5-[5-methyl-2-(2-pyridyl)-7,8-dihydro-5H-pyrido[4,3-d]pyrimidin-6-yl]phenoxy]propyl]methanesulfonamide]: the IC50 under setting [1] was 46 nM.
